Our source for the IC50 values is US10913738B2 (BRISTOL-MYERS SQUIBB COMPANY, priority 2017, dated 2021).

Where two headings read alike, the source gives them in different places.

In test [1] the test system is MLKL phosphorylation in HT29-L23 human colorectal adenocarcinoma cells. The experiment in a line: MLKL Phosphorylation High-Content Assay. As to conditions: Homo sapiens. Type of test: cell-based. The essentials:
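Cells incubated six hours at 37° C., then phospho-MLKL (S358) immunostained overnight at 4° C. and imaged by high-content microscopy. Phosphorylation quantified as mean circ-ring average intensity ratio; IC50 and Ymax from 4-parameter logistic fits.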

The target of test [2] is T1, His-GST-TVMV-hRIPK1(1-324) (Homo sapiens, UniProt Q13546).
T1 construct: The coding region of human RIPK1(1-324) flanked by NdeI site at 5′ end; made in house; host or cells: Spodoptera frugiperda (Sf9) insect cells, baculovirus
T1 sequence (Q13546 1-324): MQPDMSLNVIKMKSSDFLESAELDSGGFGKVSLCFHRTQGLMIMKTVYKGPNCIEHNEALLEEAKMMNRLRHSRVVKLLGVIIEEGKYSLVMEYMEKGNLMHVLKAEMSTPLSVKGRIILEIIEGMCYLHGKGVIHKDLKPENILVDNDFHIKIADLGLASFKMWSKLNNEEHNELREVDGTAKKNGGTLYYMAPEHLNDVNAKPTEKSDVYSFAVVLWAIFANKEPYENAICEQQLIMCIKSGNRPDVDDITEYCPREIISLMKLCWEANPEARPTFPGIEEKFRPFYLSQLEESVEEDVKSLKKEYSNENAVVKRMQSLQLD
Kind of test: RIPK1 HTRF Binding Assay.

Setting [3] is: x marks IC50 class <20 nM, read-out: pMLKL cell activity <20 nM.
Setting [4] is: x marks IC50 class <20 nM, read-out: RIPK1 HTRF binding <20 nM.
Setting [5] is: x marks IC50 class 20-200 nM, read-out: pMLKL cell activity 20-200 nM.
Where [6] appears, read: x marks IC50 class >200 nM, read-out: pMLKL cell activity >200 nM.
[7] abbreviates: x marks IC50 class 20-200 nM, read-out: RIPK1 HTRF binding 20-200 nM.

On to `[2H]C([2H])([2H])N(Cc1cc(OC(F)(F)F)ccc1F)C(=O)c1cc(-c2ccn3nc(N)nc3c2)cnc1OC` [Example 367, 5-(2-amino-[1,2,4]triazolo[1,5-a]pyridin-7-yl)-N-(2-fluoro-5-(trifluoromethoxy)benzyl)-2-methoxy-N-(methyl-d3)nicotinamide], for which the IC50 in test [1] (setting [3]) and in test [2] (setting [4]) was < 20 nM throughout.

As for `Nc1nc2cc(-c3cc(C(=O)NCc4cc(OC(F)(F)F)ccc4F)cnc3Cl)ccn2n1` [Example 368, 5-(2-Amino-[1,2,4]triazolo[1,5-a]pyridin-7-yl)-6-chloro-N-(2-fluoro-5-(trifluoromethoxy)benzyl)nicotinamide], the values for the IC50 in test [1] (setting [5]) and in test [2] (setting [4]) were 20 to 200 nM and < 20 nM, respectively.

Take `Nc1nc2cc(-c3cc(C(=O)NCc4cc(F)ccc4OC(F)(F)F)cnc3Cl)ccn2n1` [Example 369, 5-(2-amino-[1,2,4]triazolo[1,5-a]pyridin-7-yl)-6-chloro-N-(5-fluoro-2-(trifluoromethoxy)benzyl)nicotinamide]: the IC50 in test [1] (setting [5]) is 20 to 200 nM; in test [2] (setting [4]), < 20 nM.

For the molecule `C[C@@H](NC(=O)c1cnc(Cl)c(-c2ccn3nc(N)nc3c2)c1)c1ccccc1OC(F)(F)F` [Example 370, (R)-5-(2-amino-[1,2,4]triazolo[1,5-a]pyridin-7-yl)-6-chloro-N-(1-(2-(trifluoromethoxy)phenyl)ethyl)nicotinamide], the IC50 in test [1] (setting [5]) is 20 to 200 nM; in test [2] (setting [4]), < 20 nM.

`C[C@H](NC(=O)c1cnc(Cl)c(-c2ccn3nc(N)nc3c2)c1)c1cc(OC(F)(F)F)ccc1F` [Example 371, (S)-5-(2-amino-[1,2,4]triazolo[1,5-a]pyridin-7-yl)-6-chloro-N-(1-(2-fluoro-5-(trifluoromethoxy)phenyl)ethyl)nicotinamide]: the IC50 in test [1] (setting [5]) was 20 to 200 nM; in test [2] (setting [4]), < 20 nM.

Consider `Nc1nc2cc(-c3cc(C(=O)NCc4ccccc4OC(F)(F)F)cnc3Cl)ccn2n1` [Example 372, 5-(2-amino-[1,2,4]triazolo[1,5-a]pyridin-7-yl)-6-chloro-N-(2-(trifluoromethoxy)benzyl)nicotinamide], for which the IC50 in test [1] (setting [6]) is > 200 nM; in test [2] (setting [4]), < 20 nM.

In the case of `CNc1cn2nc(-c3cnc(OC)c(C(=O)N[C@@H](C)c4cc(OC(F)(F)F)ccc4F)c3)ccc2n1` [Example 374, (S)—N-(1-(2-fluoro-5-(trifluoromethoxy)phenyl)ethyl)-2-methoxy-5-(2-(methylamino)imidazo[1,2-b]pyridazin-6-yl)nicotinamide], the IC50 in test [1] (setting [5]) is 20 to 200 nM; in test [2] (setting [4]), < 20 nM.

With `[2H]C([2H])([2H])Nc1nc2cc(-c3cnc(C)c(C(=O)N[C@H](C)c4cc(OC(F)(F)F)ccc4F)c3)ccn2n1` [Example 375, (R)—N-(1-(2-fluoro-5-(trifluoromethoxy)phenyl)ethyl)-2-methyl-5-(2-((methyl-d3)amino)-[1,2,4]triazolo[1,5-a]pyridin-7-yl)nicotinamide], the IC50 in test [1] (setting [5]) is 20 to 200 nM; in test [2] (setting [4]), < 20 nM.

For the molecule `COc1ncc(-c2ccn3nc(N)nc3c2)cc1C(=O)NCc1cc(F)ccc1C(=O)N1CCC(F)(F)C1` [Example 376, 5-(2-amino-[1,2,4]triazolo[1,5-a]pyridin-7-yl)-N-(2-(3,3-difluoropyrrolidine-1-carbonyl)-5-fluorobenzyl)-2-methoxynicotinamide], the IC50 in test [1] (setting [3]) and in test [2] (setting [4]) was < 20 nM each time.

`COc1ncc(-c2ccn3nc(N)nc3c2)cc1C(=O)NCc1ccccc1C(=O)N1CCC(F)(F)C1` [Example 377, 5-(2-amino-[1,2,4]triazolo[1,5-a]pyridin-7-yl)-N-(2-(3,3-difluoropyrrolidine-1-carbonyl)benzyl)-2-methoxynicotinamide]: the IC50 in test [1] (setting [5]) and in test [2] (setting [7]) was 20 to 200 nM each time.

For `COc1nc(C)c(-c2ccn3nc(N)nc3c2)cc1C(=O)NCc1cc(F)cc(F)c1C(=O)N1CCC(F)(F)C1` [Example 380, 5-(2-amino-[1,2,4]triazolo[1,5-a]pyridin-7-yl)-N-(2-(3,3-difluoropyrrolidine-1-carbonyl)-3,5-difluorobenzyl)-2-methoxy-6-methylnicotinamide], the IC50 in test [1] (setting [3]) and in test [2] (setting [4]) was < 20 nM each time.

As to `COc1nc(C)c(-c2ccn3nc(N)nc3c2)cc1C(=O)NCc1cc(F)ccc1C(=O)N1CCC(F)(F)C1` [Example 381, 5-(2-amino-[1,2,4]triazolo[1,5-a]pyridin-7-yl)-N-(2-(3,3-difluoropyrrolidine-1-carbonyl)-5-fluorobenzyl)-2-methoxy-6-methylnicotinamide], the IC50 in test [1] (setting [3]) and in test [2] (setting [4]) was < 20 nM in each case.

Take `[2H]C([2H])([2H])[C@@H](NC(=O)c1nc(-c2ccn3nc(N)nc3c2)cnc1OC)c1cc(OC(F)(F)F)ccc1F` [Example 383, (R)-6-(2-amino-[1,2,4]triazolo[1,5-a]pyridin-7-yl)-N-(1-(2-fluoro-5-(trifluoromethoxy)phenyl)ethyl-2,2,2-d3)-3-methoxypyrazine-2-carboxamide]: the IC50 is > 200 nM in test [1] (setting [6]) and < 20 nM in test [2] (setting [4]).

Regarding `COc1ncc(-c2ccn3nc(N)nc3c2)nc1C(=O)NCc1cc(OC(F)(F)F)ccc1F` [Example 384, 6-(2-amino-[1,2,4]triazolo[1,5-a]pyridin-7-yl)-N-(2-fluoro-5-(trifluoromethoxy)benzyl)-3-methoxypyrazine-2-carboxamide], the IC50 was > 200 nM in test [1] (setting [6]) and 20 to 200 nM in test [2] (setting [7]).

As for `COc1ncc(-c2ccn3nc(N)nc3c2)nc1C(=O)NCCC(C)c1ccccc1` (stereo not drawn) [Example 385, 6-(2-amino-[1,2,4]triazolo[1,5-a]pyridin-7-yl)-3-methoxy-N-(3-phenylbutyl)pyrazine-2-carboxamide], the IC50 in test [1] (setting [6]) was > 200 nM; in test [2] (setting [7]), 20 to 200 nM.

`COc1nnc(-c2ccn3nc(N)nc3c2)cc1C(=O)NCc1cc(OC(F)(F)F)ccc1F` [Example 386, 6-(2-amino-[1,2,4]triazolo[1,5-a]pyridin-7-yl)-N-(2-fluoro-5-(trifluoromethoxy)benzyl)-3-methoxypyridazine-4-carboxamide]: the IC50 in test [1] (setting [6]) is > 200 nM; in test [2] (setting [7]), 20 to 200 nM.

Take `COc1nnc(-c2ccn3nc(N)nc3c2)cc1C(=O)NCCC(C)c1ccccc1` (stereo not drawn) [Example 387, 6-(2-amino-[1,2,4]triazolo[1,5-a]pyridin-7-yl)-3-methoxy-N-(3-phenylbutyl)pyridazine-4-carboxamide]: the values for the IC50 in test [1] (setting [6]) and in test [2] (setting [7]) were > 200 nM and 20 to 200 nM, respectively.

Take `COc1cnc(-c2ccn3nc(N)nc3c2)cc1C(=O)NCc1cc(OC(F)(F)F)ccc1F` [Example 388, 2-(2-amino-[1,2,4]triazolo[1,5-a]pyridin-7-yl)-N-(2-fluoro-5-(trifluoromethoxy)benzyl)-5-methoxyisonicotinamide]: the IC50 in test [1] (setting [5]) and in test [2] (setting [7]) was 20 to 200 nM in each case.

Consider `COc1cnc(-c2ccn3nc(N)nc3c2)cc1C(=O)N[C@H](C)c1cc(OC(F)(F)F)ccc1F` [Example 389, (R)-2-(2-amino-[1,2,4]triazolo[1,5-a]pyridin-7-yl)-N-(1-(2-fluoro-5-(trifluoromethoxy)phenyl)ethyl)-5-methoxyisonicotinamide], for which the IC50 is > 200 nM in test [1] (setting [6]) and 20 to 200 nM in test [2] (setting [7]).

For `COc1cnc(-c2ccn3nc(N)nc3c2)cc1C(=O)NCCC(C)c1ccccc1` (stereo not drawn) [Example 390, 2-(2-amino-[1,2,4]triazolo[1,5-a]pyridin-7-yl)-5-methoxy-N-(3-phenylbutyl)isonicotinamide], the IC50 was > 200 nM in test [1] (setting [6]) and 20 to 200 nM in test [2] (setting [7]).

As to `COc1cnc(-c2ccn3nc(N)nc3c2)cc1C(=O)NCc1cc(C(F)(F)F)ccc1F` [Example 391, 2-(2-amino-[1,2,4]triazolo[1,5-a]pyridin-7-yl)-N-(2-fluoro-5-(trifluoromethyl)benzyl)-5-methoxyisonicotinamide], the IC50 is > 200 nM in test [1] (setting [6]) and > 200 nM in test [2] (x marks IC50 class >200 nM, read-out: RIPK1 HTRF binding >200 nM).

Turning to `Cc1cnc(-c2ccn3nc(N)nc3c2)cc1C(=O)N[C@H](C)c1cc(OC(F)(F)F)ccc1F` [Example 392, (R)-2-(2-amino-[1,2,4]triazolo[1,5-a]pyridin-7-yl)-N-(1-(2-fluoro-5-(trifluoromethoxy)phenyl)ethyl)-5-methylisonicotinamide], the figures for the IC50 in test [1] (setting [5]) and in test [2] (setting [4]) were 20 to 200 nM and < 20 nM, respectively.

For `Cc1cnc(-c2ccn3nc(N)nc3c2)cc1C(=O)NCCC(C)c1ccccc1` (stereo not drawn) [Example 393, 2-(2-amino-[1,2,4]triazolo[1,5-a]pyridin-7-yl)-5-methyl-N-(3-phenylbutyl)isonicotinamide], the IC50 was 20 to 200 nM in test [1] (setting [5]) and < 20 nM in test [2] (setting [4]).

Consider `Cc1cnc(-c2ccn3nc(N)nc3c2)cc1C(=O)NCc1cc(OC(F)(F)F)ccc1F` [Example 394, 2-(2-amino-[1,2,4]triazolo[1,5-a]pyridin-7-yl)-N-(2-fluoro-5-(trifluoromethoxy)benzyl)-5-methylisonicotinamide], for which the IC50 in test [1] (setting [5]) was 20 to 200 nM; in test [2] (setting [4]), < 20 nM.
